These results are taken from patent US10000488B2, “Heterocyclic compound” (TAKEDA PHARMACEUTICAL COMPANY LIMITED, priority 2014, dated 2018).

Molecules are shown by their SMILES.

In assay [1] the target is T1, RORγt (Homo sapiens, UniProt P51449).
T1 sequence (P51449 1-497 isoform P51449-2): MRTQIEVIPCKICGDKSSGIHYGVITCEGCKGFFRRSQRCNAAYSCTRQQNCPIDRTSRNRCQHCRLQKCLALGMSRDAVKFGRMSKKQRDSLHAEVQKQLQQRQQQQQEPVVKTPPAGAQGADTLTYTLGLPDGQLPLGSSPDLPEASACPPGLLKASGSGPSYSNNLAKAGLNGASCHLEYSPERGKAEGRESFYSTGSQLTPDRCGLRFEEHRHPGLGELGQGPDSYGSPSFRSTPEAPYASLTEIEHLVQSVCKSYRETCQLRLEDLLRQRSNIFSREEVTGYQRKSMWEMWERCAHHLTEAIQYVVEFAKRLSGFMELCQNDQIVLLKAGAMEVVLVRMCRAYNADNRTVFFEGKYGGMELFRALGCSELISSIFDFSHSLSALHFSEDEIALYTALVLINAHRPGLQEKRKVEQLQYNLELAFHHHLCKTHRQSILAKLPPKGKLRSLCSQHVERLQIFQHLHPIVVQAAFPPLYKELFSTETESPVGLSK
Put plainly: RORγt binding test using fluorescent-labeled synthetic ligand (TR-FRET). The conditions noted are these: test compound 1 μM; read-out: binding inhibitory rate (%) of fluorescent-labeled synthetic ligand to RORγt at test compound 1 μM. As for the experimental part: RORγt Binding Test Using Fluorescent-Labeled Synthetic Ligand
The binding activity of the test compound to RORγt was measured by a time resolved fluorescence resonance energy transfer (TR-FRET) utilizing histidine-tagged RORγt, fluorescent-labeled synthetic ligand, and terbium-labeled anti-histidine tag antibody (Invitrogen). First, a test compound diluted with an assay buffer (20 mM Tris-HCl (pH 7.5), 100 mM NaCl, 1 mM DTT, 0.1% BSA) was added to a 384 well plate by 3 μL. Then, RORγt diluted with an assay buffer to 240 nM was added by 3 μL, after which fluorescent-labeled synthetic ligand diluted with the assay buffer to 12 μM was added by 3 μL, and the mixture was stood at room temperature for 20 min. Thereafter, a terbium-labeled anti-histidine tag antibody diluted with the assay buffer to 8 nM was added by 3 μL. The mixture was stood at room temperature for 20 min, and fluorescence intensity (excitation wavelength 320 nm, fluorescence wavelength 520 nm, delay time 100 microseconds) was measured by Envision (PerkinElmer).
For orientation: TR-FRET usually uses a lanthanide donor and a delayed reading to cut background.

Assay [2] has as its target T1, RORγt. Put plainly: Cofactor recruitment test (Alpha Screen, biotinylated SRC-1 peptide). In kind it is biochemical. The conditions noted are these: read-out: signal value inhibitory rate (%) at test compound 1 μM. The procedure: Cofactor Recruitment Test
Cofactor recruitment test was performed by Alpha Screen (Histidine Detection Kit, PerkinElmer) method. First, a test compound was diluted with an assay buffer (50 mM Tris-HCl (pH 7.5), 50 mM KCl, 1 mM DTT, 0.1% BSA) and added to a 384 well plate by 5 μL. […] The mixture was stood in a dark place for 1 hr, and the signal value was measured by Envision (PerkinElmer).

For assay [3], the target named is T1, RORγt. Put plainly: Jurkat reporter test (human IL-17 ROR response element luciferase reporter, RORγt vector). In kind it is cell-based. The conditions noted are these: test compound 3 μM; Jurkat cells; read-out: luminescence level inhibitory rate (%) at test compound 3 μM. The procedure: The Jurkat cells used for the reporter test were cultured in a culture medium (RPMI (Invitrogen), 10% FCS (AusGeneX), 100 U/mL penicillin, 100 μg/mL streptomycin). On the day of the test, 4×10^7 cells were recovered by a centrifugal operation (1000 rpm, for 5 min) and suspended in PBS (phosphate buffered saline) (Invitrogen). Thereafter, the cells were recovered again by a centrifugal operation, and suspended in 2 mL of R buffer (NEON transfection kit, Invitrogen). […] Gene transfer was performed by Electroporation apparatus (NEON, Invitrogen) under the conditions of pulse voltage 1350 V, interval 10 milliseconds, number of times 3. The cells after gene transfer were suspended in 40 mL of a reaction medium (RPMI, 10% Lipid reduced FCS (HyClone), 10 mM HEPES (pH 7.5), 100 U/mL penicillin, 100 μg/mL streptomycin, 5 μM lovastatin), and plated in a 96 well plate by 90 μL. A test compound diluted with the reaction medium was added by 10 μL, and the cells were cultured overnight in an incubator. Bright-Glo (Promega) was added by 100 μL, and the mixture was stirred at room temperature for 10 min, and the luminescence level was measured by Envision (PerkinElmer).

As for `CC(C)n1c(=O)n(CC2CC2)c(=O)c2cc(NC(=O)N3CCOC(C(=O)Nc4ccc(C#N)c(F)c4)C3)ccc21` (stereo not drawn) [Example 176, N^2-(4-cyano-3-fluorophenyl)-N^4-(3-(cyclopropylmethyl)-1-isopropyl-2,4-dioxo-1,2,3,4-tetrahydroquinazolin-6-yl)morpholine-2,4-dicarboxamide], the inhibition at 1 µM on RORγt [1] was 101%; on RORγt [2], 111%. Besides, the inhibition at 3 µM on RORγt [3] came to 100%.
For `CC(C)n1c(=O)n(CC2CC2)c(=O)c2cc(NC(=O)N3CCC[C@@H](NC(=O)c4ccc5c(c4)CCN(C(=O)OC(C)(C)C)C5)C3)c(F)cc21` [Example 340, tert-butyl 6-(((3R)-1-((3-(cyclopropylmethyl)-7-fluoro-1-isopropyl-2,4-dioxo-1,2,3,4-tetrahydroquinazolin-6-yl)carbamoyl)piperidin-3-yl)carbamoyl)-3,4-dihydroisoquinoline-2 (1H)-carboxylate] the same measures were 98%, 92% and 107%.
For `CC(C)n1c(=O)n(CC2CC2)c(=O)c2cc(NC(=O)N3CCC[C@@H](NC(=O)c4ccc5c(c4)CCO5)C3)ccc21` [Example 251, (3R)-N-(3-(cyclopropylmethyl)-1-isopropyl-2,4-dioxo-1,2,3,4-tetrahydroquinazolin-6-yl)-3-((2,3-dihydro-1-benzofuran-5-ylcarbonyl)amino)piperidine-1-carboxamide] the same measures were 102%, 105% and 102%.
Consider `CC(C)n1c(=O)n(CC2CC2)c(=O)c2cc(NC(=O)N3CCNC(C(=O)Nc4ccc(C#N)c(Cl)c4)C3)ccc21` (stereo not drawn) [Example 82, N^3-(3-chloro-4-cyanophenyl)-N^1-(3-(cyclopropylmethyl)-1-isopropyl-2,4-dioxo-1,2,3,4-tetrahydroquinazolin-6-yl)piperazine-1,3-dicarboxamide], for which the inhibition at 1 µM at RORγt [1] is 101%; at RORγt [2], 103%. In addition, the inhibition at 3 µM at RORγt [3] is 102%.
In the case of `Cc1nc2cc(C(=O)N[C@@H]3CCCN(C(=O)Nc4cc5c(=O)n(CC6CC6)c(=O)n(C(C)C)c5cc4F)C3)ccc2o1` [Example 296, N-((3R)-1-((3-(cyclopropylmethyl)-7-fluoro-1-isopropyl-2,4-dioxo-1,2,3,4-tetrahydroquinazolin-6-yl)carbamoyl)piperidin-3-yl)-2-methyl-1,3-benzoxazole-5-carboxamide], the inhibition at 1 µM at RORγt [1] is 102%; on RORγt [2], 108%. The inhibition at 3 µM at RORγt [3] stood at 102%.
For `CC(C)n1c(=O)n(CC2CC2(F)F)c(=O)c2cc(NC(=O)N3CCOC(C(=O)Nc4cnc(C#N)c(Cl)c4)C3)c(F)cc21` (mixture of isomers) [Example 356, (2R)—N^2-(5-chloro-6-cyanopyridin-3-yl)-N^4-(3-((2,2-difluorocyclopropyl)methyl)-7-fluoro-1-isopropyl-2,4-dioxo-1,2,3,4-tetrahydroquinazolin-6-yl)morpholine-2,4-dicarboxamide (mixture of two stereoisomers)], the inhibition at 1 µM came to 102% at RORγt [1] and 108% at RORγt [2]. In addition, at RORγt [3], the inhibition at 3 µM stood at 107%.
Taken in the same sequence, the figures for `Cc1cc(C(=O)N[C@@H]2CCCN(C(=O)Nc3ccc4c(c3)c(=O)n(CC3CC3)c(=O)n4C(C)C)C2)ccc1C#N` [Example 249, (3R)-3-((4-cyano-3-methylbenzoyl)amino)-N-(3-(cyclopropylmethyl)-1-isopropyl-2,4-dioxo-1,2,3,4-tetrahydroquinazolin-6-yl)piperidine-1-carboxamide] were 102%, 110% and 103%.
Taken in the same sequence, the figures for `CC(C)n1c(=O)n(CC2CCCO2)c(=O)c2cc(NC(=O)N3CCO[C@@H](C(=O)Nc4ccc(C#N)c(Cl)c4)C3)c(F)cc21` (stereo partly drawn) [Example 333, (2R)—N^2-(3-chloro-4-cyanophenyl)-N^4-(7-fluoro-1-isopropyl-2,4-dioxo-3-(tetrahydrofuran-2-ylmethyl)-1,2,3,4-tetrahydroquinazolin-6-yl)morpholine-2,4-dicarboxamide] were 101%, 107% and 106%.
With `CC(C)n1c(=O)n(CC2CC2)c(=O)c2cc(NC(=O)N3CCC[C@@H](N4Cc5ccc(C#N)cc5C4=O)C3)c(F)cc21` [Example 323, (3R)-3-(6-cyano-1-oxo-1,3-dihydro-2H-isoindol-2-yl)-N-(3-(cyclopropylmethyl)-7-fluoro-1-isopropyl-2,4-dioxo-1,2,3,4-tetrahydroquinazolin-6-yl)piperidine-1-carboxamide], the inhibition at 1 µM at RORγt [1] was 102%; on RORγt [2], 108%. Moreover, the inhibition at 3 µM on RORγt [3] came out at 103%.
For `CC(C)n1c(=O)n(CC2CC2)c(=O)c2cc(NC(=O)N3CCCC(NC(=O)c4ccc(C#N)nc4)C3)ccc21` (stereo not drawn) [Example 157, 6-cyano-N-(1-((3-(cyclopropylmethyl)-1-isopropyl-2,4-dioxo-1,2,3,4-tetrahydroquinazolin-6-yl)carbamoyl)piperidin-3-yl) nicotinamide] the same measures were 102%, 109% and 102%.
For `COC(=O)N1Cc2ccc(C(=O)N[C@@H]3CCCN(C(=O)Nc4cc5c(=O)n(CC6CC6)c(=O)n(C(C)C)c5cc4F)C3)cc2C1` [Example 343, methyl 5-(((3R)-1-((3-(cyclopropylmethyl)-7-fluoro-1-isopropyl-2,4-dioxo-1,2,3,4-tetrahydroquinazolin-6-yl)carbamoyl)piperidin-3-yl)carbamoyl)-1,3-dihydro-2H-isoindole-2-carboxylate] the same measures were 101%, 107% and 108%.
Taken in the same sequence, the figures for `CC(C)n1c(=O)n(CC2CC2)c(=O)c2cc(NC(=O)N3CCO[C@@H](C(=O)Nc4cnc(C#N)c(F)c4)C3)ccc21` [Example 103, (2R)-N^2-(6-cyano-5-fluoropyridin-3-yl)-N^4-(3-(cyclopropylmethyl)-1-isopropyl-2,4-dioxo-1,2,3,4-tetrahydroquinazolin-6-yl)morpholine-2,4-dicarboxamide] were 101%, 102% and 103%.
On to `CC(C)n1c(=O)n(CC2CC2)c(=O)c2cc(NC(=O)N3CCC[C@@H](NC(=O)c4ccc(Cl)cc4)C3)ccc21` [Example 247, (3R)-3-((4-chlorobenzoyl)amino)-N-(3-(cyclopropylmethyl)-1-isopropyl-2,4-dioxo-1,2,3,4-tetrahydroquinazolin-6-yl)piperidine-1-carboxamide], for which the figures for the inhibition at 1 µM at RORγt [1] and at RORγt [2] were 102% and 107%, respectively. Besides, the inhibition at 3 µM on RORγt [3] is 103%.
With `CCNC(=O)OCc1ccc(C(=O)N[C@@H]2CCCN(C(=O)Nc3cc4c(=O)n(CC5CC5)c(=O)n(C(C)C)c4cc3F)C2)cc1` [Example 315, 4-(((3R)-1-((3-(cyclopropylmethyl)-7-fluoro-1-isopropyl-2,4-dioxo-1,2,3,4-tetrahydroquinazolin-6-yl)carbamoyl)piperidin-3-yl)carbamoyl)benzyl ethylcarbamate], the inhibition at 1 µM at RORγt [1] is 102%; at RORγt [2], 94%. At RORγt [3], the inhibition at 3 µM came to 108%.
